Measured values from ChEMBL document CHEMBL1201862, “PubChem BioAssay data set” (2004).
Active and inactive are the calls of the source.

Key:
[1] = Luminescence Cell-Based Dose Confirmation to Identify Activators of 5'UTR Stem-Loop Driven Alpha-Synuclein mRNA Translation in H4 Neuroglioblastoma Cells. [Related pubchem assays: 1829 (Project Summary), 1814 (Primary HTS)]; type: functional
H4 = experiment: Luminescence Cell-Based Dose Response HTS to Identify Activators of 5'UTR Stem-Loop Driven Prion Protein mRNA Translation in H4 Neuroglioblastoma Cells. [Related pubchem assays: 1829 (Project Summary), 1814 (Primary HTS)]; type: functional; settings: Homo sapiens
[2] = Luminescence Cell-Based Dose Confirmation HTS to Identify Activators of 5'UTR Stem-Loop Driven Alpha-Synuclein mRNA Translation in H4 Neuroglioblastoma Cells. [Related pubchem assays: 1829 (Project Summary), 1814 (Primary HTS)]; type: functional
[3] = Luminescence Cell-Based Dose Response to Identify Activators of Luciferase Translation or Activity in H4-C Neuroglioblastoma Cells. [Related pubchem assays: 1829 (Project Summary), 1814 (Primary HTS)]; type: functional
[4] = Luminescence Cell-Based Dose Response to Identify Activators of 5'UTR Stem-Loop Driven Prion Protein mRNA Translation in H4-C Neuroglioblastoma Cells. [Related pubchem assays: 1829 (Project Summary), 1814 (Primary HTS)]; type: functional
[5] = Luminescence Cell-Based Dose Response HTS to Identify Activators of Luciferase Translation or Activity in H4 […] Cells. [Related pubchem assays: 1829 (Project Summary), 1814 (Primary HTS)]; type: functional
[6] = HEK-293T cell viability reduction – luminescence, B-cell screen hits, cytotoxicity control for BCR NF-kB inhibitor project, dose response (AID 489021); type: functional, cell-based;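 further: HEK-293T cells carrying an NF-kB luciferase reporter; cells exposed to compound for about 14 hours before viability readout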
[7] = Luminescence-based dose response cell-based high throughput screening assay for cytotoxic compounds using the IEC-6 intestinal epithelial cell line. [Related pubchem assays: 1858 (Summary AID.), 1825 (Counterscreen.), 1907 (Confirmation screen.)]; type: functional
[8] = biological target: Heat shock protein HSP 90-alpha (Homo sapiens, UniProt P07900); experiment: Luminescence-based dose response biochemical high throughput screening assay for inhibitors of the Heat Shock Protein 90 (HSP90). [Related pubchem assays: 1831 (Summary AID.), 1846 (Confirmation screen.), 1789 (Primary screen.)]
Estrogen receptor beta = Estrogen receptor beta (Homo sapiens, UniProt Q92731);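 further: recombinant ER-beta bound to coactivator SRC1 peptide in presence of estradiol agonist; inhibitors block coactivator peptide binding and lower the FRET signal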
Genome polyprotein = Genome polyprotein (dengue virus type 2, UniProt P29990); experiment: flavivirus cap methylation enzyme inhibition – biochemical, confirmation dose response, primary screen (AID 588689); type: functional
Large T antigen = Large T antigen (Simian virus 40, UniProt P03070); type: functional, Betapolyomavirus macacae;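 further: Confirmatory-stage PubChem screen for compounds that inhibit SV40 T antigen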
Vero = experiment: viability of Vero cells under compound – cytotoxicity control for flavivirus capping enzyme inhibitors (AID 588742); type: functional; settings: Chlorocebus sabaeus
Hexokinase HKDC1 = biological target: T1, Hexokinase HKDC1 (Homo sapiens, UniProt Q2TB90); experiment: inhibition of HKDC1 glucose phosphorylation – biochemical, W721R variant, dose response (AID 504729); type: functional
T1 sequence (Q2TB90 whole entry): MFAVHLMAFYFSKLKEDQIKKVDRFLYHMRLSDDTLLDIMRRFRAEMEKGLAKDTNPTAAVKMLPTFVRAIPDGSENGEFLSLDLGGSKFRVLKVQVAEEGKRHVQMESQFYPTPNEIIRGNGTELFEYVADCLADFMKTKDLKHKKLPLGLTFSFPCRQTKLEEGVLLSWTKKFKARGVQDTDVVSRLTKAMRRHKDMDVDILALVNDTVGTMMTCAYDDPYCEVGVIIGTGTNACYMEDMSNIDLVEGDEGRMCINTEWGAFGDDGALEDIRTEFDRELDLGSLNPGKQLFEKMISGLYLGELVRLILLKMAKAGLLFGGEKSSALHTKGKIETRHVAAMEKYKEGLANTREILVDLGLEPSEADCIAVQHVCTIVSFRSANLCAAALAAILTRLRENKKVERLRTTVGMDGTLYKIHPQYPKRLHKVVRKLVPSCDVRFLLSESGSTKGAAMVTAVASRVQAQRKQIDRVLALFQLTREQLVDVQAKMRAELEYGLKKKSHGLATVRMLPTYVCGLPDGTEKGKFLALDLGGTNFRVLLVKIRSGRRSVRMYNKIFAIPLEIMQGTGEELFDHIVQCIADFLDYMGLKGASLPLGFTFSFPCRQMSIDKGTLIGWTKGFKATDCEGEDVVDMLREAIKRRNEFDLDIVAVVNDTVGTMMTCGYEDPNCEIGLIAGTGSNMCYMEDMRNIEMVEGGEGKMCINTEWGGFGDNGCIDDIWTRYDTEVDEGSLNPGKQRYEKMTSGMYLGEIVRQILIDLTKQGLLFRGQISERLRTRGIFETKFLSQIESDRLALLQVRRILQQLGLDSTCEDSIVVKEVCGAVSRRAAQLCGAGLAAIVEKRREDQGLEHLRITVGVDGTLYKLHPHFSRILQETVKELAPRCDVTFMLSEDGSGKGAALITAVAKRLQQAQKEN

[9] = biological target: T2, Tyrosyl-DNA phosphodiesterase 2 (Homo sapiens, UniProt O95551); experiment: potency against TDP2 phosphodiesterase activity – biochemical, epi absorbance, IC50, dose response (AID 743297)
T2 sequence (O95551 whole entry): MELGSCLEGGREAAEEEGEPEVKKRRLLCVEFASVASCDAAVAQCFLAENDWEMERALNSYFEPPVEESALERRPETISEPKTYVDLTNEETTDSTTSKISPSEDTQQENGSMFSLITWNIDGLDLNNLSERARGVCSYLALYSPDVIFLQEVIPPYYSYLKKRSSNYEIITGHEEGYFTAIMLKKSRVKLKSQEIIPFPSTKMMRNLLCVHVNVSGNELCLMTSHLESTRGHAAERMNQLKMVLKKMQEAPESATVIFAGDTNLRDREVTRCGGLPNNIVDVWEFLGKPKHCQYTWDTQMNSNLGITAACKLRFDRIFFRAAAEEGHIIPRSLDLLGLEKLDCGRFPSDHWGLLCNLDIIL

[10] = viability loss in Vero cells – cytotoxicity control for Vif-APOBEC3G degradation inhibitor project, dose response (AID 1117358); type: functional; settings: Vero
[11] = Luminescent dose response cell-based high throughput screening assay for inhibitors of the Janus kinase 2 mutant JAK2V617F. [Related pubchem assays: 1446 (Primary screen.), 1521 (Confirmation assay.), 1486 (Counter screen.)]; type: functional
Protein Tat = biological target: T3, Protein Tat (Human immunodeficiency virus type 1 group M subtype B (isolate HXB2)(HIV-1), UniProt P04608); type: functional;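 further: tat binding to TAR RNA read out by fluorescence polarization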
T3 sequence (P04608 whole entry): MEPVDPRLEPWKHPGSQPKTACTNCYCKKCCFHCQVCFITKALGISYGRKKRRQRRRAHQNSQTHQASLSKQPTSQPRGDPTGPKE

Paired box protein Pax-8 = Paired box protein Pax-8 (Homo sapiens, UniProt Q06710); experiment: PAX8 transcriptional activity inhibition in RMG-I – RMG-I cells, luciferase, cherry-pick, dose response (AID 687027); type: functional, cell-based;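 further: luciferase reporter driven by Pax8 target thyroperoxidase promoter measured by SteadyGlo luminescence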
[12] = IGROV1 cell killing – plate reader, dry powder samples, PAX8 inhibitor project, dose response (AID 743043); type: functional, cell-based; settings: IGROV-1
[13] = OVCAR8 cell viability loss – plate reader, dry powder samples, PAX8 project, dose response (AID 743197); type: functional, cell-based; settings: OVCAR-8
[14] = reduced cellular PGC1a acetyl-lysine signal – cell-based, cherry-picked samples, dose response (AID 720514); type: functional;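 further: potency may reflect raised or lowered acetylation signal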
[15] = toxicity toward immortalized ovarian surface epithelium – cell-based, plate reader, dry powder samples, cytotoxicity control for PAX8 inhibitor project, dose response (AID 743045); type: functional
[16] = OVCAR-3 cell viability loss – plate reader, dry powder samples, PAX8 inhibitor project, dose response (AID 743044); type: functional, cell-based

Chain of Large T antigen (P03070 whole entry): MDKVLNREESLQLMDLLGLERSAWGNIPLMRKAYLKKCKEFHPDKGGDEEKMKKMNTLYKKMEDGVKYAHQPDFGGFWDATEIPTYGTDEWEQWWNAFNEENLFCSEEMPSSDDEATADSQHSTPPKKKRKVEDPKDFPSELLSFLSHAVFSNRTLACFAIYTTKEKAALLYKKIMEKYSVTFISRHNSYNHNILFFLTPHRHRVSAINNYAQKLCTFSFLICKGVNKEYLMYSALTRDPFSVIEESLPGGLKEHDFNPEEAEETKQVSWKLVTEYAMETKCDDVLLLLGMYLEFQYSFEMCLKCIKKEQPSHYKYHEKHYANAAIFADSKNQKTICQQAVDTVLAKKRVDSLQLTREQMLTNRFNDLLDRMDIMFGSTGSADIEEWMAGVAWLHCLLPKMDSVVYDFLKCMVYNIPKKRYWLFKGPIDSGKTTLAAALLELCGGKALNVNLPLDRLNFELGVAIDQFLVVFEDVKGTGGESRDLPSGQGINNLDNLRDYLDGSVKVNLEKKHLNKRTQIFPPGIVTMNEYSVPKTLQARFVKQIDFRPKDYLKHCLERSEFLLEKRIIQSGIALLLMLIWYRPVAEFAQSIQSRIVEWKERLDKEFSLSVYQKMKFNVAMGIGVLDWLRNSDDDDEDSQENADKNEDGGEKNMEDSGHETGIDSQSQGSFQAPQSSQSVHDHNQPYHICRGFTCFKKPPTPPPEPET
Chain of Genome polyprotein (P29990 2492-3391 limits assumed): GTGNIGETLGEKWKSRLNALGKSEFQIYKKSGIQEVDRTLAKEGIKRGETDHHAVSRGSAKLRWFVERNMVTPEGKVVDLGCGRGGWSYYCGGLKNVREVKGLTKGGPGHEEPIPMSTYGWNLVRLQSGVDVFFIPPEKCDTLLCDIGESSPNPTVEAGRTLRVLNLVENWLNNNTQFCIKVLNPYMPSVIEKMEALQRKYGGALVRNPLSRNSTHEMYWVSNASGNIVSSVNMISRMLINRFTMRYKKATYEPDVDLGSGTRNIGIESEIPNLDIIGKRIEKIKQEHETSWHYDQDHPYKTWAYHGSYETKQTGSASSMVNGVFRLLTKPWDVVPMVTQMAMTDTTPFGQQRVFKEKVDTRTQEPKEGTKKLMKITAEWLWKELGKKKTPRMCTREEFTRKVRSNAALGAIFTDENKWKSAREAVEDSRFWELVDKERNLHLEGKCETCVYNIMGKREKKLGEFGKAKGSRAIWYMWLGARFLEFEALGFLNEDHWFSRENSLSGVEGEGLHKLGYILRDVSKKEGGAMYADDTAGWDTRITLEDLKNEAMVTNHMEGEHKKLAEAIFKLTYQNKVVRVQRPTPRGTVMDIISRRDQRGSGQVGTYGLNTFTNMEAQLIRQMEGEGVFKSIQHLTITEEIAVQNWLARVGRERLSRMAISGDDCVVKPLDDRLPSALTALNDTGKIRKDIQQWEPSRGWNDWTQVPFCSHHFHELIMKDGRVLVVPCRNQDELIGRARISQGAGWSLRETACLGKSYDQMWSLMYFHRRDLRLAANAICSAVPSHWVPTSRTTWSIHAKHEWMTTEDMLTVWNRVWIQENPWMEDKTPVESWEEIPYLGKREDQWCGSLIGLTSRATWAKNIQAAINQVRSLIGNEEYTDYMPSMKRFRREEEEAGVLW
Chain of Paired box protein Pax-8 (Q06710 whole entry): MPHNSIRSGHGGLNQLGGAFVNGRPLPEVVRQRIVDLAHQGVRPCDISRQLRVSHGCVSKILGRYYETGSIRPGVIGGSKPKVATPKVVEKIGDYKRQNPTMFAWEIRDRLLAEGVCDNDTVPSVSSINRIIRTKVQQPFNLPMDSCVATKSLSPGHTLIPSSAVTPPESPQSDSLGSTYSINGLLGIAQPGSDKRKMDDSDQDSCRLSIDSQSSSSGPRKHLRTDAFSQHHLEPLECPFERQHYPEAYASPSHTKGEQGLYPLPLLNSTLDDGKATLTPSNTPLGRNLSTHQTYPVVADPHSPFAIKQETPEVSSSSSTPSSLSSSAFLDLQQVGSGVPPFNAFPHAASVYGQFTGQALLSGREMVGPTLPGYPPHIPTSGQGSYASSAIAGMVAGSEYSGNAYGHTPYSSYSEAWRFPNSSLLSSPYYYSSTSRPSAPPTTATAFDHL
Chain of Estrogen receptor beta (Q92731 whole entry): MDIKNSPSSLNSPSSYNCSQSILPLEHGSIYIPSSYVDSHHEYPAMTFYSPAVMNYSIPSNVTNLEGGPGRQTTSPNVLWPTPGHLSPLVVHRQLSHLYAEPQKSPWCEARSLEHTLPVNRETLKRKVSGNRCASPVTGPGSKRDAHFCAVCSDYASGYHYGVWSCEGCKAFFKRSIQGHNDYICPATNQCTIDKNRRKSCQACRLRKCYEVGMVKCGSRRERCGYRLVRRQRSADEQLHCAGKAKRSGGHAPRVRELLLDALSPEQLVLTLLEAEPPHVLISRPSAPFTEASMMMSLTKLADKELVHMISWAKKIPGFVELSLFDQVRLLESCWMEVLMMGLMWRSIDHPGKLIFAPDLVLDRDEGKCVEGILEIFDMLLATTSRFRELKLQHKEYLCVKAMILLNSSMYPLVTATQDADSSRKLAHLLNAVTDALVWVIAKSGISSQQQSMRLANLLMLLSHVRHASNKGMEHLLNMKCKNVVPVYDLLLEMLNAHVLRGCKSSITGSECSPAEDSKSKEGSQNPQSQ

SMILES: COc1ccc(C(=O)Nc2cnc3ccccn3c2=O)cc1
- EC50 [1]: 0.36 µM (active)
- EC50 (H4): 38.8 µM (active)
- EC50 [2]: 0.129 µM (active)
- EC50 [3]: 0.53 µM (active)
- EC50 [4]: 0.755 µM (active)
- EC50 [5]: < 0.1 µM (active)

SMILES: Cc1ccc(Nc2nc(N3CCOCC3)nc(N3CCOCC3)n2)cc1C
- IC50 [6]: > 80 µM (inactive)
- IC50 [7]: 1.47 µM (active)

SMILES: COC(=O)c1ccccc1OCCCOc1ccc(C)cc1OC
- IC50 [8]: 0.00405 µM (active)

SMILES: Cc1occc1C(=O)NCCCc1ccccc1
- IC50 (Estrogen receptor beta): > 50 µM (not active)

SMILES: Cc1cccc(-n2c3nc(=O)[nH]c(=O)c-3cc3cc([N+](=O)[O-])ccc32)c1
- IC50 (Genome polyprotein): 32.7 µM (active)
- IC50 (Large T antigen): > 100 µM (active)
- CC50 (Vero): 24.8 µM (active)
- IC50 (Hexokinase HKDC1): 10.4 µM (active)
- IC50 [9]: > 128 µM (inactive)

SMILES: CC(C)c1ccc(/C=C/C(=O)N2CCc3ccccc3C2)cc1
- CC50 [10]: > 40 µM (active)

SMILES: Cc1nn(Cc2ccccc2)c(Cl)c1C(=O)NCCc1ccccc1
- EC50 [1]: 0.24 µM (active)
- EC50 [2]: < 0.1 µM (active)
- EC50 [3]: 0.367 µM (active)
- EC50 [4]: 1.07 µM (active)
- EC50 [5]: < 0.1 µM (active)

SMILES: Cc1ccc[n+](-c2[n-]c(=O)sc2C=NNC(=O)c2ccccc2O)c1
- CC50 [10]: > 40 µM (active)

SMILES: CC(C)(C)c1ccc(C(=O)CSc2nc[nH]n2)cc1
- EC50 [1]: 0.58 µM (active)
- EC50 (H4): 0.127 µM (active)
- EC50 [2]: 3.34 µM (active)
- EC50 [3]: 1.09 µM (active)
- EC50 [4]: 1.13 µM (active)
- EC50 [5]: 88.1 µM (active)

SMILES: O=S(=O)(c1cccs1)N1CCN(c2ccc(O)cc2)CC1
- IC50 (Large T antigen): 6.66 µM (active)
- IC50 [11]: 2.84 µM (active)

SMILES: COc1ccc(OC)c(C2C(C(=O)Nc3ccc(F)cc3)=C(C)Nc3nc(CCCO)nn32)c1 (stereo not given)
- IC50 (Protein Tat): > 100 µM (active)

SMILES: C#CCSc1nsc(SCC#C)c1C#N
- IC50 [11]: 1.1 µM (active)

SMILES: Cc1noc(C)c1COC(=O)c1cccc(S(=O)(=O)N2CCCCCC2)c1
- CC50 [10]: > 40 µM (active)

SMILES: O=C(Nc1ccc(C(F)(F)F)cc1)N1C[C@@H]2N[C@H](C1)[C@H]2c1ccc(-c2ccccc2)cc1
- AC50 (Paired box protein Pax-8): 8.55 µM (active)
- AC50 [12]: 27.2 µM (active)
- AC50 [13]: 41 µM (active)
- AC50 [14]: 5.12 µM (active)
- AC50 [15]: 49.8 µM (active)
- AC50 [16]: 17.7 µM (active)

SMILES: C[C@@H]1CCCCO[C@H](CN(C)C(=O)NC2CCCCC2)[C@@H](C)CN([C@@H](C)CO)C(=O)c2cc(NC(=O)NC3CCCCC3)ccc2O1
- AC50 [14]: 26 µM (active)
